Laboratory results reported in the supplement of paper PMC10307832.

Experiments:
Test in all cases: relative viability (nuclei count vs DMSO), 5 days (fraction); higher = more cells survive
[1] = compound: C1/C(=C\C2=CC=CS2)/C(=O)/C(=C/C3=CC=CS3)/C1 + C[C@]1(O)C[C@@H](c2nc(-c3ccc4ccc(-c5ccccc5)nc4c3)c3c(N)nccn32)C1 [Linsitinib] (partner 1 µM)
In short: (§1)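 After 5 days of treatment, lung cancer cells in 1536-well plates were fixed and stained in a single step (final 0.05% Triton X-100, 1% formaldehyde, 1 ug/ml Hoechst) and their nuclei counted on 4× images. Treatment had been applied by pin tool the day after seeding as one drug alone or as a fixed anchor-drug dose with five library-drug doses (not always all listed) in √10 steps. Relative viability is the nuclei count of treated wells divided by that of vehicle wells, and values are medians of duplicate plates.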

TPCA-1 + Decitabine = compound: C1=CC(=CC=C1C2=CC(=C(S2)NC(=O)N)C(=O)N)F [TPCA-1] + Nc1ncn([C@H]2C[C@H](O)[C@@H](CO)O2)c(=O)n1 [Decitabine] (partner 2 µM)
In short: as §1

TPCA-1 + Foretinib = compound: C1=CC(=CC=C1C2=CC(=C(S2)NC(=O)N)C(=O)N)F [TPCA-1] + COc1cc2c(Oc3ccc(NC(=O)C4(C(=O)Nc5ccc(F)cc5)CC4)cc3F)ccnc2cc1OCCCN1CCOCC1 [Foretinib] (partner 0.25 µM)
In short: as §1

Lestaurtinib + Alpelisib = compound: C[C@]12O[C@H](C[C@]1(O)CO)n1c3ccccc3c3c4c(c5c6ccccc6n2c5c31)CNC4=O [Lestaurtinib] + Cc1nc(NC(=O)N2CCC[C@H]2C(N)=O)sc1-c1ccnc(C(C)(C)C(F)(F)F)c1 [Alpelisib] (partner 2 µM)
In short: as §1

Cell Line: 201T
- relative viability ([1]; first compound 0.2 µM): 1.08
- relative viability ([1]; first compound 0.6325 µM): 0.989
- relative viability ([1]; first compound 2 µM): 1.16
- relative viability ([1]; first compound 6.325 µM): 0.9
- relative viability ([1]; first compound 20 µM): 0.996
- relative viability (TPCA-1 + Decitabine; first compound 0.04 µM): 0.901
- relative viability (TPCA-1 + Decitabine; first compound 0.1265 µM): 0.868
- relative viability (TPCA-1 + Decitabine; first compound 0.4 µM): 0.889
- relative viability (TPCA-1 + Decitabine; first compound 1.265 µM): 0.869
- relative viability (TPCA-1 + Decitabine; first compound 4 µM): 0.941
- relative viability (TPCA-1 + Foretinib; first compound 0.04 µM): 1.12
- relative viability (TPCA-1 + Foretinib; first compound 0.1265 µM): 1.04
- relative viability (TPCA-1 + Foretinib; first compound 0.4 µM): 1.07
- relative viability (TPCA-1 + Foretinib; first compound 1.265 µM): 1.09
- relative viability (TPCA-1 + Foretinib; first compound 4 µM): 0.9
- relative viability (Lestaurtinib + Alpelisib; first compound 0.005 µM): 1.04
- relative viability (Lestaurtinib + Alpelisib; first compound 0.01581 µM): 1.03
- relative viability (Lestaurtinib + Alpelisib; first compound 0.05 µM): 1.02
- relative viability (Lestaurtinib + Alpelisib; first compound 0.1581 µM): 0.933
- relative viability (Lestaurtinib + Alpelisib; first compound 0.5 µM): 0.693

Cell Line: NCI-H1734
- relative viability ([1]; first compound 0.2 µM): 0.902
- relative viability ([1]; first compound 0.6325 µM): 0.931
- relative viability ([1]; first compound 2 µM): 0.947
- relative viability ([1]; first compound 6.325 µM): 0.782
- relative viability ([1]; first compound 20 µM): 0.875
- relative viability (TPCA-1 + Decitabine; first compound 0.04 µM): 0.58
- relative viability (TPCA-1 + Decitabine; first compound 0.1265 µM): 0.468
- relative viability (TPCA-1 + Decitabine; first compound 0.4 µM): 0.531
- relative viability (TPCA-1 + Decitabine; first compound 1.265 µM): 0.517
- relative viability (TPCA-1 + Decitabine; first compound 4 µM): 0.454
- relative viability (TPCA-1 + Foretinib; first compound 0.04 µM): 0.897
- relative viability (TPCA-1 + Foretinib; first compound 0.1265 µM): 0.742
- relative viability (TPCA-1 + Foretinib; first compound 0.4 µM): 0.917
- relative viability (TPCA-1 + Foretinib; first compound 1.265 µM): 0.818
- relative viability (TPCA-1 + Foretinib; first compound 4 µM): 0.732
- relative viability (Lestaurtinib + Alpelisib; first compound 0.005 µM): 0.732
- relative viability (Lestaurtinib + Alpelisib; first compound 0.01581 µM): 0.689
- relative viability (Lestaurtinib + Alpelisib; first compound 0.05 µM): 0.569
- relative viability (Lestaurtinib + Alpelisib; first compound 0.1581 µM): 0.377
- relative viability (Lestaurtinib + Alpelisib; first compound 0.5 µM): 0.304

Cell Line: NCI-H520
- relative viability ([1]; first compound 0.2 µM): 0.953
- relative viability ([1]; first compound 0.6325 µM): 1.09
- relative viability ([1]; first compound 2 µM): 0.941
- relative viability ([1]; first compound 6.325 µM): 1.02
- relative viability ([1]; first compound 20 µM): 0.795
- relative viability (TPCA-1 + Decitabine; first compound 0.04 µM): 0.522
- relative viability (TPCA-1 + Decitabine; first compound 0.1265 µM): 0.35
- relative viability (TPCA-1 + Decitabine; first compound 0.4 µM): 0.573
- relative viability (TPCA-1 + Decitabine; first compound 1.265 µM): 0.516
- relative viability (TPCA-1 + Decitabine; first compound 4 µM): 0.331
- relative viability (TPCA-1 + Foretinib; first compound 0.04 µM): 0.768
- relative viability (TPCA-1 + Foretinib; first compound 0.1265 µM): 0.816
- relative viability (TPCA-1 + Foretinib; first compound 0.4 µM): 0.753
- relative viability (TPCA-1 + Foretinib; first compound 1.265 µM): 0.676
- relative viability (TPCA-1 + Foretinib; first compound 4 µM): 0.742
- relative viability (Lestaurtinib + Alpelisib; first compound 0.005 µM): 1.05
- relative viability (Lestaurtinib + Alpelisib; first compound 0.01581 µM): 0.993
- relative viability (Lestaurtinib + Alpelisib; first compound 0.05 µM): 0.764
- relative viability (Lestaurtinib + Alpelisib; first compound 0.1581 µM): 0.481
- relative viability (Lestaurtinib + Alpelisib; first compound 0.5 µM): 0.274

Cell Line: NCI-H1355
- relative viability ([1]; first compound 0.2 µM): 0.906
- relative viability ([1]; first compound 0.6325 µM): 0.744
- relative viability ([1]; first compound 2 µM): 0.863
- relative viability ([1]; first compound 6.325 µM): 0.666
- relative viability ([1]; first compound 20 µM): 0.758
- relative viability (TPCA-1 + Decitabine; first compound 0.04 µM): 0.365
- relative viability (TPCA-1 + Decitabine; first compound 0.1265 µM): 0.35
- relative viability (TPCA-1 + Decitabine; first compound 0.4 µM): 0.342
- relative viability (TPCA-1 + Decitabine; first compound 1.265 µM): 0.346
- relative viability (TPCA-1 + Decitabine; first compound 4 µM): 0.354
- relative viability (TPCA-1 + Foretinib; first compound 0.04 µM): 0.991
- relative viability (TPCA-1 + Foretinib; first compound 0.1265 µM): 0.837
- relative viability (TPCA-1 + Foretinib; first compound 0.4 µM): 0.977
- relative viability (TPCA-1 + Foretinib; first compound 1.265 µM): 0.932
- relative viability (TPCA-1 + Foretinib; first compound 4 µM): 0.705
- relative viability (Lestaurtinib + Alpelisib; first compound 0.005 µM): 0.849
- relative viability (Lestaurtinib + Alpelisib; first compound 0.01581 µM): 0.885
- relative viability (Lestaurtinib + Alpelisib; first compound 0.05 µM): 0.682
- relative viability (Lestaurtinib + Alpelisib; first compound 0.1581 µM): 0.392
- relative viability (Lestaurtinib + Alpelisib; first compound 0.5 µM): 0.303

Cell Line: NCI-H1915
- relative viability ([1]; first compound 0.2 µM): 1.14
- relative viability ([1]; first compound 0.6325 µM): 1.08
- relative viability ([1]; first compound 2 µM): 1.09
- relative viability ([1]; first compound 6.325 µM): 1.04
- relative viability ([1]; first compound 20 µM): 1.1
- relative viability (TPCA-1 + Decitabine; first compound 0.04 µM): 0.266
- relative viability (TPCA-1 + Decitabine; first compound 0.1265 µM): 0.253
- relative viability (TPCA-1 + Decitabine; first compound 0.4 µM): 0.258
- relative viability (TPCA-1 + Decitabine; first compound 1.265 µM): 0.255
- relative viability (TPCA-1 + Decitabine; first compound 4 µM): 0.251
- relative viability (TPCA-1 + Foretinib; first compound 0.04 µM): 1.17
- relative viability (TPCA-1 + Foretinib; first compound 0.1265 µM): 1.06
- relative viability (TPCA-1 + Foretinib; first compound 0.4 µM): 1.15
- relative viability (TPCA-1 + Foretinib; first compound 1.265 µM): 1.07
- relative viability (TPCA-1 + Foretinib; first compound 4 µM): 0.872
- relative viability (Lestaurtinib + Alpelisib; first compound 0.005 µM): 1.06
- relative viability (Lestaurtinib + Alpelisib; first compound 0.01581 µM): 1.05
- relative viability (Lestaurtinib + Alpelisib; first compound 0.05 µM): 1.04
- relative viability (Lestaurtinib + Alpelisib; first compound 0.1581 µM): 0.761
- relative viability (Lestaurtinib + Alpelisib; first compound 0.5 µM): 0.376

Cell Line: BEN
- relative viability ([1]; first compound 0.2 µM): 0.96
- relative viability ([1]; first compound 0.6325 µM): 0.923
- relative viability ([1]; first compound 2 µM): 0.877
- relative viability ([1]; first compound 6.325 µM): 0.841
- relative viability ([1]; first compound 20 µM): 0.757
- relative viability (TPCA-1 + Decitabine; first compound 0.04 µM): 0.875
- relative viability (TPCA-1 + Decitabine; first compound 0.1265 µM): 0.625
- relative viability (TPCA-1 + Decitabine; first compound 0.4 µM): 0.813
- relative viability (TPCA-1 + Decitabine; first compound 1.265 µM): 0.838
- relative viability (TPCA-1 + Decitabine; first compound 4 µM): 0.387
- relative viability (TPCA-1 + Foretinib; first compound 0.04 µM): 0.654
- relative viability (TPCA-1 + Foretinib; first compound 0.1265 µM): 0.549
- relative viability (TPCA-1 + Foretinib; first compound 0.4 µM): 0.671
- relative viability (TPCA-1 + Foretinib; first compound 1.265 µM): 0.679
- relative viability (TPCA-1 + Foretinib; first compound 4 µM): 0.303
- relative viability (Lestaurtinib + Alpelisib; first compound 0.005 µM): 1.09
- relative viability (Lestaurtinib + Alpelisib; first compound 0.01581 µM): 1.31
- relative viability (Lestaurtinib + Alpelisib; first compound 0.05 µM): 0.852
- relative viability (Lestaurtinib + Alpelisib; first compound 0.1581 µM): 0.722
- relative viability (Lestaurtinib + Alpelisib; first compound 0.5 µM): 0.446

Cell Line: NCI-H3122
- relative viability ([1]; first compound 0.2 µM): 1.01
- relative viability ([1]; first compound 0.6325 µM): 1.06
- relative viability ([1]; first compound 2 µM): 1.09
- relative viability ([1]; first compound 6.325 µM): 0.919
- relative viability ([1]; first compound 20 µM): 0.97
- relative viability (TPCA-1 + Decitabine; first compound 0.04 µM): 0.424
- relative viability (TPCA-1 + Decitabine; first compound 0.1265 µM): 0.404
- relative viability (TPCA-1 + Decitabine; first compound 0.4 µM): 0.424
- relative viability (TPCA-1 + Decitabine; first compound 1.265 µM): 0.496
- relative viability (TPCA-1 + Decitabine; first compound 4 µM): 0.455
- relative viability (TPCA-1 + Foretinib; first compound 0.04 µM): 1.06
- relative viability (TPCA-1 + Foretinib; first compound 0.1265 µM): 0.914
- relative viability (TPCA-1 + Foretinib; first compound 0.4 µM): 1.02
- relative viability (TPCA-1 + Foretinib; first compound 1.265 µM): 0.928
- relative viability (TPCA-1 + Foretinib; first compound 4 µM): 0.909
- relative viability (Lestaurtinib + Alpelisib; first compound 0.005 µM): 0.92
- relative viability (Lestaurtinib + Alpelisib; first compound 0.01581 µM): 0.983
- relative viability (Lestaurtinib + Alpelisib; first compound 0.05 µM): 0.932
- relative viability (Lestaurtinib + Alpelisib; first compound 0.1581 µM): 0.841
- relative viability (Lestaurtinib + Alpelisib; first compound 0.5 µM): 0.48

Cell Line: SK-MES-1
- relative viability ([1]; first compound 0.2 µM): 1.05
- relative viability ([1]; first compound 0.6325 µM): 1.1
- relative viability ([1]; first compound 2 µM): 0.992
- relative viability ([1]; first compound 6.325 µM): 0.818
- relative viability ([1]; first compound 20 µM): 0.982
- relative viability (TPCA-1 + Decitabine; first compound 0.04 µM): 0.39
- relative viability (TPCA-1 + Decitabine; first compound 0.1265 µM): 0.348
- relative viability (TPCA-1 + Decitabine; first compound 0.4 µM): 0.37
- relative viability (TPCA-1 + Decitabine; first compound 1.265 µM): 0.342
- relative viability (TPCA-1 + Decitabine; first compound 4 µM): 0.321
- relative viability (TPCA-1 + Foretinib; first compound 0.04 µM): 0.997
- relative viability (TPCA-1 + Foretinib; first compound 0.1265 µM): 0.847
- relative viability (TPCA-1 + Foretinib; first compound 0.4 µM): 0.813
- relative viability (TPCA-1 + Foretinib; first compound 1.265 µM): 0.599
- relative viability (TPCA-1 + Foretinib; first compound 4 µM): 0.609
- relative viability (Lestaurtinib + Alpelisib; first compound 0.005 µM): 0.862
- relative viability (Lestaurtinib + Alpelisib; first compound 0.01581 µM): 0.337
- relative viability (Lestaurtinib + Alpelisib; first compound 0.05 µM): 0.332
- relative viability (Lestaurtinib + Alpelisib; first compound 0.1581 µM): 0.302
- relative viability (Lestaurtinib + Alpelisib; first compound 0.5 µM): 0.229
